Article PMC12203862, “BroadAMP-GPT: AI-Driven generation of broad-spectrum antimicrobial peptides for combating multidrug-resistant ESKAPE pathogens” (Gut Microbes, 2025)
In brackets after ≈: the same amount, converted by molar mass. Residues, ends and D or L forms follow the SMILES beside them.

Assays:
S. aureus ATCC 29213 = assay: microbe, parasite or virus in culture; format: cell-based; conditions: ATCC 29213
A. baumannii 7979 = assay: microbe, parasite or virus in culture; format: cell-based; conditions: 7979
Method: (§1) Bacterial strains and growth conditions: All Gram-negative and Gram-positive bacterial strains (Supplementary Table S8) were cultured in Luria-Bertani (LB) or trypticase soy broth (TSB) agar plates, respectively, and incubated overnight at 37 °C unless specifically indicated. A single colony of the tested bacterial strains was inoculated into medium broth with shaking at 220 rpm for further experiments.
(§2) Minimal inhibitory concentrations: Antimicrobial susceptibility testing was performed by broth microdilution method for AMPs against Gram-positive and Gram-negative pathogens above mentioned, following the methods of document CLSI M100-ED34.[43] The MICs were defined as the lowest concentrations that inhibit visible growth of the tested bacteria. E. coli ATCC 25,922 and S. aureus ATCC 29,213 were served as quality controls.

E. coli ATCC 25922 = assay: microbe, parasite or virus in culture; format: cell-based; conditions: ATCC 25922
Method: as §1, §2

E. faecalis ES01 = assay: microbe, parasite or virus in culture; format: cell-based; conditions: ES01
Method: as §1, §2

E. faecalis J2 = assay: microbe, parasite or virus in culture; format: cell-based; conditions: J2
Method: as §1, §2

E. faecalis JH2-2 = assay: microbe, parasite or virus in culture; format: cell-based; conditions: JH2-2
Method: as §1, §2

E. faecalis SF23-1 = assay: microbe, parasite or virus in culture; format: cell-based; conditions: SF23-1
Method: as §1, §2

E. faecium HFY01 = assay: microbe, parasite or virus in culture; format: cell-based; conditions: HFY01
Method: as §1, §2

E. faecium MC38 = assay: microbe, parasite or virus in culture; format: cell-based; conditions: MC38
Method: as §1, §2

E. faecium QF31 = assay: microbe, parasite or virus in culture; format: cell-based; conditions: QF31
Method: as §1, §2

K. pneumoniae 9-1 = assay: microbe, parasite or virus in culture; format: cell-based; conditions: 9-1
Method: as §1, §2

P. aeruginosa PA14 = assay: microbe, parasite or virus in culture; format: cell-based; conditions: PA14
Method: as §1, §2

P. aeruginosa PAO1 = assay: microbe, parasite or virus in culture; format: cell-based; conditions: PAO1
Method: as §1, §2

S. agalactiae DL03 = assay: microbe, parasite or virus in culture; format: cell-based; conditions: DL03
Method: as §1, §2

S. aureus M147-2 = assay: microbe, parasite or virus in culture; format: cell-based; conditions: M147-2
Method: as §1, §2

S. aureus M92-1 = assay: microbe, parasite or virus in culture; format: cell-based; conditions: M92-1
Method: as §1, §2

S. aureus YZSA-15 = assay: microbe, parasite or virus in culture; format: cell-based; conditions: YZSA-15
Method: as §1, §2

S. aureus YZSA-21 = assay: microbe, parasite or virus in culture; format: cell-based; conditions: YZSA-21
Method: as §1, §2

S. aureus YZSA-24 = assay: microbe, parasite or virus in culture; format: cell-based; conditions: YZSA-24
Method: as §1, §2

S. pyogenes DL02 = assay: microbe, parasite or virus in culture; format: cell-based; conditions: DL02
Method: as §1, §2

S. suis SH0918 = assay: microbe, parasite or virus in culture; format: cell-based
Method: as §1, §2

S. suis P1/7 = assay: microbe, parasite or virus in culture
Method: as §1
as §2, with “bacteria.” for “bacteria. E. coli ATCC 25,922 and S. aureus ATCC 29,213 were served as quality controls.”

S. enteritis S1 = assay: organism not typed; format: cell-based
Method: as §1, §2

[1] = tested on: S. aureus clinical isolates (n = 40); format: cell-based
Method: as §1, §2

[2] = tested on: four Gram-positive and five Gram-negative bacteria, including ESKAPE pathogens; format: cell-based
Method: as §1, §2

proteinase K = proteinase K (Parengyodontium album, UniProt P06873); assay: Protease stability by MIC change; format: in vitro ADME; conditions: proteinase K 10 μg/mL, 37℃, 1 h, then MIC
pepsin = pepsin 10 μg/mL, 37℃, 1 h, then MIC
Method: (§3) To understand stability of peptide under different pH conditions, AMP solutions were prepared at different pH values (pH = 2, 4, 6, 8, 10, and 12) and then incubated at room temperature for 1 h. For the temperature stability, AMP solutions were incubated at 20, 25, 40, 60, 80, and 100℃ for 1 h. For the protease stability, AMP solutions were incubated with pepsin, trypsin, and proteinase K at different concentration of 10 μg/mL at 37℃ for 1 h.[52],[53] After incubation, the MIC values peptides were determined using the MIC experimental protocol.

trypsin = trypsin 10 μg/mL, 37℃, 1 h, then MIC
Method: as §3

Caco-2 = assay: Cytotoxicity, CCK-8; format: cell-based, human
Method: (§4) The cytotoxicity of selected AMPs to human laryngeal carcinoma epithelial cell (HEp-2) and colorectal adenocarcinoma cell (Caco-2) lines was evaluated using the CCK-8 method as previously described.[55] The cells were cultured in high-glucose dulbecco’s modified eagle medium (DMEM) supplemented with 10% fetal bovine serum (FBS) and 1% penicillin-streptomycin. Cells were inoculated in 96-well sterile microtiter plate at 5000 cells/100 μL. After cultured (37℃, 5%CO2) for 24 h, cells were treated with AMPs at concentrations ranging from 8 to 128 μg/mL for another 48 h. Afterward, the culture medium was replaced by fresh DMEM medium containing 10% CCK-8 and incubated for 1 h. The absorbance of the solution was measured at 450 nm by a microplate reader. Cell viability was calculated as: % cell viability = [(Abssample - Absblank)/(Absnegative - Absblank)]×100%. Each experiment was carried out with three replicates.

HEp-2 = assay: Cytotoxicity, CCK-8; format: cell-based, human
Method: as §4

mouse red blood cells = assay: Haemolysis assay; format: cell-based
Method: Red blood cells (RBCs) from Kunming mice were used to evaluate the hemolytic toxicity of the selected AMPs. Fresh red blood cells were collected from mice and washed until the supernatant was completely cleared. Added 19-fold volume of PBS to prepare 2% RBC suspension. […] Afterward, the mixture was centrifuged at 1500 rpm for 10 min. Then transferred 30 µL supernatant to 96-well plate containing 70 µL PBS. The absorbance of the sample was measured at 450 nm by a microplate reader. PBS and 2% Triton X-100 was used as negative and positive control, respectively. The experiment was performed in triplicate and the hemolysis activity was calculated by the formula hemolysis = [(Absorbancesample- AbsorbancePBS)/(AbsorbanceTriton x-100-AbsorbancePBS)]×100%.

chymotrypsin = conditions: 1 h, then MIC
[3] = MIC in the presence of 50% rabbit plasma; S. aureus, E. faecalis, S. suis, S. enteritis, K. pneumoniae

Chain of proteinase K (P06873 106-384): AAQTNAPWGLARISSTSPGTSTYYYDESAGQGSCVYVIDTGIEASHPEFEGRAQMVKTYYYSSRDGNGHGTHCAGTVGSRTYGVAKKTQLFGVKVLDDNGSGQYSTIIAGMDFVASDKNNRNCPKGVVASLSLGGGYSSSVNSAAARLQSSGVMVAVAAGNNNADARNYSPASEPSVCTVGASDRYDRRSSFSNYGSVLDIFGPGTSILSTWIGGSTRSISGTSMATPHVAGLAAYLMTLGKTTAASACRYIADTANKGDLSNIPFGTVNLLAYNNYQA

**Q.** With CC[C@H](C)[C@H](NC(=O)[C@H](C)NC(=O)[C@H](CCC(N)=O)NC(=O)[C@H](Cc1c[nH]c2ccccc12)NC(=O)[C@H](C)N)C(=O)N[C@@H](C)C(=O)N[C@@H](CCCNC(=N)N)C(=O)N[C@@H](CC(C)C)C(=O)N[C@H](C(=O)N[C@@H](CCCCN)C(=O)NCC(=O)N[C@@H](CCCNC(=N)N)C(=O)NCC(=O)N[C@@H](CCCNC(=N)N)C(=O)N[C@@H](CCCCN)C(=O)N[C@@H](CCCCN)C(=O)N[C@@H](Cc1ccc(O)cc1)C(=O)NCC(=O)N[C@@H](CCCNC(=N)N)C(=O)N[C@H](C(=O)N[C@H](C(=O)N[C@H](C(=O)N[C@H](C(=O)NCC(=O)O)[C@@H](C)CC)[C@@H](C)CC)[C@@H](C)CC)[C@@H](C)CC)[C@@H](C)CC [AMP_S13] (H-AWQAIARLIKGRGRKKYGRIIIIG-OH) as the compound, how does the MIC (S. aureus ATCC 29213) read?
**A.** The MIC was 8 µg/mL (≈ 2.92 µM).

**Q.** And the MIC (A. baumannii 7979)?
**A.** Its MIC is 2 µg/mL (≈ 0.73 µM).

**Q.** What about the MIC (E. coli ATCC 25922) of the same compound?
**A.** The MIC was 8 µg/mL (≈ 2.92 µM).

**Q.** And the MIC (E. faecalis ES01)?
**A.** The MIC was 4 µg/mL (≈ 1.46 µM).

**Q.** And the MIC (E. faecalis J2)?
**A.** Its MIC is 8 µg/mL (≈ 2.92 µM).

**Q.** What about the MIC (E. faecalis JH2-2) of the same compound?
**A.** Its MIC is 8 µg/mL (≈ 2.92 µM).

**Q.** What about the MIC (E. faecalis SF23-1) of the same compound?
**A.** The MIC was 8 µg/mL (≈ 2.92 µM).

**Q.** And the MIC (E. faecium HFY01)?
**A.** The MIC was 4 µg/mL (≈ 1.46 µM).

**Q.** What about the MIC (E. faecium MC38) of the same compound?
**A.** Its MIC is 4 µg/mL (≈ 1.46 µM).

**Q.** What about the MIC (E. faecium QF31) of the same compound?
**A.** The MIC was 4 µg/mL (≈ 1.46 µM).

**Q.** What about the MIC (K. pneumoniae 9-1) of the same compound?
**A.** Its MIC is 16 µg/mL (≈ 5.84 µM).

**Q.** What about the MIC (P. aeruginosa PA14) of the same compound?
**A.** Its MIC is 8 µg/mL (≈ 2.92 µM).

**Q.** And the MIC (P. aeruginosa PAO1)?
**A.** The MIC was 8 µg/mL (≈ 2.92 µM).

**Q.** What about the MIC (S. agalactiae DL03) of the same compound?
**A.** The MIC was 4 µg/mL (≈ 1.46 µM).

**Q.** What about the MIC (S. aureus M147-2) of the same compound?
**A.** Its MIC is 8 µg/mL (≈ 2.92 µM).

**Q.** What about the MIC (S. aureus M92-1) of the same compound?
**A.** Its MIC is 8 µg/mL (≈ 2.92 µM).

**Q.** What about the MIC (S. aureus YZSA-15) of the same compound?
**A.** The MIC was 8 µg/mL (≈ 2.92 µM).

**Q.** And the MIC (S. aureus YZSA-21)?
**A.** The MIC was 8 µg/mL (≈ 2.92 µM).

**Q.** And the MIC (S. aureus YZSA-24)?
**A.** Its MIC is 16 µg/mL (≈ 5.84 µM).

**Q.** And the MIC (S. pyogenes DL02)?
**A.** Its MIC is 4 µg/mL (≈ 1.46 µM).

**Q.** What about the MIC (S. suis SH0918) of the same compound?
**A.** Its MIC is 4 µg/mL (≈ 1.46 µM).

**Q.** What about the MIC (S. suis P1/7) of the same compound?
**A.** Its MIC is 4 µg/mL (≈ 1.46 µM).

**Q.** And the MIC (S. enteritis S1)?
**A.** The MIC was 16 µg/mL (≈ 5.84 µM).

**Q.** What about the “MICs, range over clinical isolates” value [1] of the same compound?
**A.** The value was 4 to 32 µg/mL.

**Q.** What about the “MIC values, range” value [2] of the same compound?
**A.** Its value is 2 to 16 µg/mL.

**Q.** And the “MICs, range over panel” value [2]?
**A.** Its value is 2 to 16 µg/mL.

**Q.** What about the “antimicrobial activity (MIC) after protease incubation” value (“antimicrobial activity (MIC)” below) (proteinase K) of the same compound?
**A.** The value was “only a two-fold decrease in MIC”.

**Q.** What about the “antimicrobial activity (MIC)” value (pepsin) of the same compound?
**A.** Its value is “maintained its activity”.

**Q.** What about the “antimicrobial activity (MIC)” value (trypsin) of the same compound?
**A.** Its value is “maintained its activity”.

**Q.** What about the CC50 (Caco-2; 48 h) of the same compound?
**A.** Its CC50 is 1011 µg/mL (≈ 369 µM).

**Q.** What about the CC50/MIC (Caco-2; Caco-2, MIC values against S. aureus ATCC 29213) of the same compound?
**A.** Its CC50/MIC is 126.38.

**Q.** And the CC50 (HEp-2; 48 h)?
**A.** The CC50 was 353.3 µg/mL (≈ 129 µM).

**Q.** What about the CC50/MIC (HEp-2; HEp-2, MIC values against S. aureus ATCC 29213) of the same compound?
**A.** Its CC50/MIC is 44.16.

**Q.** And the HC50/MIC (mouse red blood cells; MIC values against S. aureus ATCC 29213)?
**A.** The HC50/MIC was 116.08.

**Q.** What about the HC50 (mouse red blood cells; mouse red blood cells, 37℃, 1 h) of the same compound?
**A.** The HC50 was 928.6 µg/mL.

**Q.** What about the “antimicrobial activity (MIC)” value (chymotrypsin) of the same compound?
**A.** The value was “maintained its activity”.

**Q.** What about the “antimicrobial activity in plasma” value [3] of the same compound?
**A.** The value was “remained effective”.
